From PubChem BioAssay (NCI)
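All cell lines were grown in 96-well plates and treated with compound for 48 hours. TGI is the concentration that stops growth completely.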

Legend:
Assay in all cases: growth of human tumour cells (NCI), 48 h
LOX IMVI melanoma = tested on: LOX IMVI melanoma
SK-MEL-28 melanoma = tested on: SK-MEL-28 melanoma
SK-OV-3 ovarian = tested on: SK-OV-3 ovarian
NCI-H522 lung = tested on: NCI-H522 lung
A549 NSCLC = tested on: A549 NSCLC
EKVX NSCLC = tested on: EKVX NSCLC
MDA-MB-231 breast = tested on: MDA-MB-231 breast
NCI/ADR-RES ovarian = tested on: NCI/ADR-RES ovarian
MCF7 breast = tested on: MCF7 breast
RPMI-8226 leukemia = tested on: RPMI-8226 leukemia
RXF 393 renal = tested on: RXF 393 renal
HOP-62 NSCLC = tested on: HOP-62 NSCLC
U251 CNS = tested on: U251 CNS
MALME-3M melanoma = tested on: MALME-3M melanoma
MDA-MB-435 = tested on: MDA-MB-435
OVCAR-5 ovarian = tested on: OVCAR-5 ovarian
PC-3 prostate = tested on: PC-3 prostate

Row | SMILES | TGI (LOX IMVI melanoma) | TGI (SK-MEL-28 melanoma) | TGI (SK-OV-3 ovarian) | TGI (NCI-H522 lung) | TGI (A549 NSCLC) | TGI (EKVX NSCLC) | TGI (MDA-MB-231 breast) | TGI (NCI/ADR-RES ovarian) | TGI (MCF7 breast) | TGI (RPMI-8226 leukemia) | TGI (RXF 393 renal) | TGI (HOP-62 NSCLC) | TGI (U251 CNS) | TGI (MALME-3M melanoma) | TGI (MDA-MB-435) | TGI (OVCAR-5 ovarian) | TGI (PC-3 prostate)
1 | CCOC(=O)/C1=C(\C)N(Cc2ccccc2)C(=O)c2ccccc2C(=O)c2c(OC(C)=O)ccc(OC(C)=O)c21 | > 100 µM | > 100 µM | > 100 µM | > 100 µM | > 100 µM | 90.9 µM | > 100 µM | > 100 µM | 58.6 µM | 45.1 µM | 93 µM | > 100 µM | > 100 µM | > 100 µM | > 100 µM | > 100 µM | 
2 | CCCN(CCCC(NC(C)=O)C(=O)NCc1ccccc1)C(=O)N(C)N=O (configuration not stated) | > 100 µM | > 100 µM | > 100 µM | > 100 µM | > 100 µM | > 100 µM |  |  |  | > 100 µM | > 100 µM | > 100 µM | > 100 µM | > 100 µM |  | > 100 µM | 
3 | CC12CCC(=O)N1[C@@H](c1ccccc1)[C@@H](c1ccccc1)O2 (some centres not stated) | > 100 µM |  | > 100 µM | > 100 µM | > 100 µM |  |  |  |  |  |  | > 100 µM |  | > 100 µM |  | > 100 µM | 
4 | S=c1[nH]nc(COc2ccc(Cl)cc2)n1-c1ccccc1 | > 100 µM | > 100 µM | > 100 µM | 23.3 µM | > 100 µM | > 100 µM | > 100 µM | > 100 µM | > 100 µM |  | > 100 µM | > 100 µM | > 100 µM | > 100 µM | > 100 µM | > 100 µM | > 100 µM
5 | Cc1ccc(N=NC(=O)NNc2ccc(C)cc2Br)c(Br)c1 | 34.5 µM | 47.4 µM |  | 55.3 µM | > 100 µM |  | > 100 µM |  | 41.3 µM | 66.5 µM |  | 41.1 µM | 34.9 µM | 36.4 µM | > 100 µM | 68.4 µM | 72.5 µM
6 | O=C1NC(=S)NC(=O)C1=Cc1ccc([N+](=O)[O-])o1 | 38.7 µM | 47.7 µM | > 100 µM | 35.1 µM | > 100 µM | 42.8 µM |  |  |  | 54 µM | 38.3 µM | > 100 µM | > 100 µM | 28.4 µM |  | 34.6 µM | 
7 | O=[N+]([O-])c1ccc(C2=NOC(c3ccccc3)N2C23CC4CC(CC(C4)C2)C3)cc1 (configuration not stated) | 29.3 µM | > 100 µM | > 100 µM | 35.3 µM | 96.7 µM | > 100 µM | > 100 µM | > 100 µM | 60.1 µM |  |  | 80.2 µM | > 100 µM | 85.5 µM | 44.5 µM | 53.2 µM | 43.8 µM
8 | Cn1c(=O)oc2cc(C(O)CN3CCN(Cc4ccc5c(c4)OCO5)CC3)ccc21 (configuration not stated) | > 100 µM | > 100 µM | > 100 µM | > 100 µM | > 100 µM | > 100 µM | > 100 µM | > 100 µM | > 100 µM |  | > 100 µM | > 100 µM | > 100 µM | > 100 µM | > 100 µM | > 100 µM | > 100 µM
9 | C=C(CN(C)C)C(=O)c1ccccc1 | 15.4 µM | 34.8 µM | 41 µM | 1.69 µM | 53 µM | 46.3 µM | 31.4 µM | > 100 µM |  | > 66.3 µM | 6.47 µM | > 58.3 µM | 35.1 µM | 11.1 µM | 27.3 µM | 30.4 µM | 30.6 µM
10 | COC(=O)c1ccccc1C1CN=NC12Cc1cc3c(cc1C2=O)CCC3 (configuration not stated) | > 100 µM | > 100 µM | > 100 µM | > 100 µM | > 100 µM | > 100 µM | > 100 µM | > 100 µM | > 100 µM |  | > 100 µM | > 100 µM | > 100 µM | > 100 µM | > 100 µM | > 100 µM | > 100 µM
11 | C=C1[C@@H](OC(C)=O)/C=C/C2C3C(=O)[C@@](C)(OC(C)=O)[C@H]([C@H](OC(C)=O)[C@]4(O)[C@@H](C)C(=O)O[C@H]4[C@H]1Cl)[C@@]23C (some centres not stated) | > 100 µM | > 100 µM | > 100 µM | > 100 µM | > 100 µM | > 100 µM | > 100 µM | > 100 µM |  | > 100 µM | > 100 µM | > 100 µM | > 100 µM | > 100 µM | > 100 µM | > 100 µM | > 100 µM
12 | O=C1NC(=Nc2ccccc2Cl)N/C1=C\c1c(Cl)cccc1Cl | > 100 µM | > 100 µM | > 100 µM | 58.7 µM | > 100 µM | 79.3 µM |  | 86 µM | > 100 µM | 56.6 µM | 68 µM | > 100 µM | > 100 µM | > 100 µM | > 100 µM | 83.7 µM | 76.8 µM
13 | Cc1cc(N(CCC#N)CCC#N)ccc1/C(Sc1ccccc1)=C(\NC(=O)/C=C/c1ccccc1)C(=O)Sc1ccccc1 | 2.52 µM | 18.5 µM | 19.8 µM | 1.82 µM | 16 µM | 54.2 µM |  |  |  | 6.07 µM | 4.5 µM | 8.53 µM | 5.83 µM | 25 µM |  | 16.3 µM | 
14 | Cc1cc(C(O)CCCc2ccccc2)cc(C)c1O (configuration not stated) | > 100 µM | > 100 µM | > 100 µM | > 100 µM | > 100 µM | 75.9 µM |  |  |  | > 100 µM | 60 µM | > 100 µM | > 100 µM | 64.3 µM |  | > 100 µM | 
15 | CCN(CC)CC(C(C)=O)C(c1ccccc1)c1c(O)c2ccccc2oc1=O (configuration not stated) | > 100 µM | > 100 µM | > 100 µM | > 100 µM | > 100 µM | > 100 µM |  |  |  | > 100 µM | > 100 µM | > 100 µM | > 100 µM | > 100 µM |  | > 100 µM | 
